Reference: patent publication US7803768B2, “Method for treatment of hyperglycemia in a subject in need thereof” (Kyoto University, priority 2005, dated 2010)
Where no end group is shown, it is not given here. [ ]: non-standard residue; d: D form. The star is where a group is joined. Octanoyl = CCCCCCCC(=O)*

Key:
[1] = tested on: neonatal rat STZ model; experiment: neonatal rat STZ model, human ghrelin or GHRP-2 (Examples 3 and 4); format: in vivo, Sprague Dawley rats; conditions: 9th week after birth; for Body weights: FIG. 7A / FIG. 8A; for Pancreas weights: FIG. 7B / FIG. 8B; for Insulin Content (Gut Side): calculated from gut-side pancreas sample; for Insulin Content (Gut Side) / Insulin Content (Spleen Side): mean ± SE; for Insulin Content (Spleen Side): calculated from spleen-side pancreas sample
Text: Sprague Dawley female pregnant rats, purchased from Charles River, were allowed free access to tap water and a standard pellet rat diet (CRF-1, Oriental Yeast Co., Ltd.), and natural deliveries were allowed. Three experimental groups as follows were set: control group wherein rats received single peritoneal injection of citrate buffer immediately after birth; STZ-vehicle group wherein rats received single peritoneal injection of STZ, and then vehicle (5% mannitol solution) was subcutaneously administered twice a day from the 2nd day after birth for 7 days; and STZ-human ghrelin group wherein rats received single peritoneal injection of STZ, and then human ghrelin (sequence No. 1, 100 μg/kg body weight) was subcutaneously injected twice a day from a 2nd day after birth for 7 days.
STZ was prepared and administered as in the example 1. Each male neonatal rat was checked for urinary sugar on the 2nd day with Pretest 3aII (Wako Pure Chemical Industries, Ltd.). Only rats that were glycosuric (3+ value with Pretest 3aII) at day 2 after birth were included in the following studies. The rats were weaned in the evening on the 20th day after birth. Blood samples were collected from tail vein while awake at 8th week (57th day) after birth to measure plasma glucose and insulin concentrations. In addition, after measuring body weight at 9th week (62nd or 63rd day) after birth, blood samples were collected from abdominal aorta under anesthesia with intraperitoneal injection of pentobarbital sodium (50 mg/kg). Whole pancreases were removed and weighed. Thereafter, the pancreases were divided into two pieces and kept for insulin content measurement. Blood samples were centrifuged immediately at 4° C. to prepare plasma samples, and kept at −80° C. until measurement of glucose and insulin concentrations. Glucose concentration was measured using a Glucose CII-test Wako (Wako Pure Chemical Industries, Ltd.), while insulin concentration was measured using a highly sensitive insulin measurement kit (Morinaga Institute of Biological Science, Inc.).
Experimental materials, experimental methods and evaluation methods were similar to those in the example 2. As a test substance, 100 μg/kg of GHRP-2 was subcutaneously administered twice a day from a 2nd day after birth for 7 days (an STZ-GHRP-2 group).

[2] = tested on: n0-STZ model; experiment: n0-STZ model: neonatal streptozotocin-treated rats given rat ghrelin (Example 1); format: in vivo, Sprague Dawley rats; conditions: for Plasma Insulin: 100 μg/kg s.c. twice a day, 2nd to 8th day after birth, mean ± SE
Text: Female or male Sprague Dawley rats, purchased from Charles River were, were allowed free access to tap water and a standard pellet rat diet (352 kcal/100 g, CE-2, CLEA). Females were caged with a male for one night, and pregnancy was detected by abdominal palpation 14 days later. Natural birth occurred 22 days after mating. We examined three experimental groups as follows: a control group (Sprague Dawley rats) wherein newborn rats received a single intraperitoneal injection of citrate buffer; an n0-STZ group wherein rats received a single intraperitoneal injection of streptozotocin (STZ); and an n0-STZ/ghrelin group wherein rats received a single intraperitoneal injection of streptozotocin, and then received rat-derived ghrelin (hereafter reffered to as rat ghrelin, sequence No. 3, 100 μg/kg body weight) by subcutaneous injection twice a day on the 2nd to 8th day after birth for 7 days.
Streptozotocin (Sigma, 100 mg/kg body weight) was dissolved in citrate buffer (0.05 mmol/L, pH4.5) and immediately injected intraperitoneally once into a rat immediately after birth. Pups were left with their mothers. Each neonatal rat was checked for urinary sugar on the 2nd day with Multistix SG (Bayer Medical). Only rats that were glycosuric (3+ value with Multistix SG test) at day 2 after birth were included in the n0-STZ model group. Animals were killed at 21 or 70 days by bleeding under anesthesia with intraperitoneal injection of pentobarbital sodium (50 mg/kg).
After excision, pancreases were removed and weighed. To measure insulin content, pancreases (35-50 mg) were homogenized and centrifuged in 5 ml of acid-ethanol (0.15 M HCl 75% (v/v)-ethanol solution), and the supernatants were kept at −80° C. For immunohistochemistry, additional pancreases were fixed in 4% paraformaldehyde fixative for 24 hours, and embedded in paraffin.
Insulin and pdx-1 were detected immunohistochemically on 3 μm-thick tissue sections using an indirect peroxidase-labeling technique. Each section was incubated with a primary antibody (guinea pig anti-porcine insulin, DACO) or (rabbit anti-mouse/rat IDX-1; CHEMICON) for 1 hour. Staining was performed by incubation with 3,3′-diaminobenzidine tetrahydrochloride (DAB) kit (DakoCytomation). Quantitative evaluations of total β cells area were performed by a computer-assisted image analysis procedure using an Olympus BX 51 microscope connected to a digital camera DP 12 and Mac SCOPE Ver2.6 software (Mitani, Fukui, Japan). β cells area and total pancreatic section area were evaluated for each stained section. A relative volume of β cells was determined by a sterological morphological method, with calculation of the ratio between the areas occupied by immunoreactive cells and those occupied by total pancreatic cells.
Total RNA was extracted from rat pancreases as previously reported (Biochem. Biophys. Res. Commun., 214, pp. 239-246, 1995). To synthesis the first-strand cDNA, the extracted products were used as templates in reactions containing RT (Invitrogen) and the target 3′ primer. An RT-PCR analysis was performed according to a method previously reported (Biochem. Biophys. Res. Commun., 214, pp. 239-246, 1995). The first strand cDNA was used in subsequent PCR analyses. In the PCR analyses, oligonucleotide primers as follows were used for each target cDNA. The identity of the PCR product was confirmed by agarose gel electrophoresis.
Realtime PCR was performed as follows. The cDNA (1 μl) was mixed with 2×PCR Master Mix (Applied Biosystems) (25 μl), sterilized distilled water (23 μl), and sense and antisense primers ([…], 0.5 μl) of insulin and Pdx-1. Forty cycles of PCR amplification were carried out using the thermal cycler system (ABI PRISM 7700, Applied Biosystems, Japan), for 15 seconds at 95° C. followed by 60 seconds at 60° C. The concentration of each mRNA product was quantified using calibration curves expressing the fluorescence intensity against the amount of standardized PCR product. […]

[3] = tested on: β cells; experiment: β cell replication, phospho-histone H3 / insulin double staining of pancreatic sections (Example 2); format: in vivo, rat; conditions: for Double positive cells for phospho-histone H3 and insulin: 10-week-old rats, FIG. 6, no significant difference among four groups; for Increase of double positive cells for phospho-histone H3 and insulin: 21-day-old rats, FIG. 5B
Experimental: Pancreatic sections that had not been used for morphological studies were used to examine β cell replication. The sections were subjected to double staining for phospho-histone H3 (Ser10) and insulin. The sections were incubated overnight with 50-fold dilution of anti-phospho-histone H3 (Ser10) antibody (Cell Signaling Technology) at 4° C. Thereafter, the sections were incubated with guinea pig anti-insulin antibody at a room temperature for 1 hour. After washing with PBS for 6 times, the sections were incubated at a room temperature for 30 minutes in a blocking solution with a secondary antibody conjugated with fluorescence (Alexa Fluor 488 and 546, Molecular Probe). After washing with PBS, sections were mounted with mounting medium containing DAPI (Vector Laboratories) and examined with confocal laser scanning microscopy (Leica Microsystems). At least 1,000β cells were counted per section.

[4] = tested on: high fatty acid diet-fed mice; experiment: high fatty acid diet-fed mice with linoleic acid loading (Example 5); format: in vivo, Crj:CD1(ICR) mice
Text: Male Crj:CD1(ICR) mice (Charles River Japan) were allowed free access to tap water and a standard pellet mouse diet (CRF-1, Oriental Yeast Co., Ltd.) (with lighting hours from 21 to 9 o'clock). Normal control mice were kept in this condition (normal diet, an ND group). A high fatty acid diet group (High Fat Diet, an HFD group) was allowed to freely take a mixture of 5 g CRF-1 (powder) with 1 g linoleic acid as a high fatty acid diet from the 4th week after birth. As test substances, a vehicle (5% mannitol solution) (an HFD-vehicle group) or 300 μg/kg of human ghrelin (an HFD-ghrelin group) was administered twice a day (once a day in a holiday) for about 7 weeks from the day of the start of high fatty acid diet load. Changes in the body weights and ad lib blood sugar levels after the start of test substance administration were monitored. In addition, mice were fasted overnight on the 50th day from the start of test substance administration, and then linoleic acid (1 mL/kg, intraperitoneal administration) was acutely loaded on a next day to measure plasma glucose and plasma insulin concentrations 1 hour later. The blood sugar value was measured using Antisense II (Horiba, Ltd.), while plasma glucose concentration and insulin concentration were measured using a Glucose CII-test Wako (Wako Pure Chemical Industries, Ltd.) and a Lebis insulin kit (TMB for a mouse) (Shibayagi Co. Ltd.), respectively.

Question: “A[dW]AW[dF]K-NH2 [GHRP-2, reference compound]” was tested. Which “Insulin contents in pancreases relative to the STZ-vehicle group” value [1] did it give?
Answer: The value was “higher than those of the STZ-vehicle group”.

Question: What about the Body weights [1] of the same substance?
Answer: Its Body weights is “not significantly different from those of the control group”.

Question: And the Pancreas weights [1]?
Answer: The Pancreas weights was “greater than those of the STZ-vehicle group”.

Question: What about the “Insulin Content (Gut Side)” value [1] of the same substance?
Answer: Its value is 81.7 ± 4.6 μg/pancreas.

Question: What about the “Insulin Content (Spleen Side)” value [1] of the same substance?
Answer: The value was 146.8 ± 10.9 μg/pancreas.

Question: Which results are given for “GSS(n-octanoyl)FLSPEHQKAQQRKESKKPPAKLQPR [rat ghrelin]”?
Answer: Plasma Insulin ([2]; 10-week-old rats): 0.93 ± 0.49 ng/mL; Plasma Insulin ([2]; 21-day-old rats): 0.35 ± 0.17 ng/mL; Insulin mRNA expression levels within the pancreases ([2]; 21st day after birth, FIG. 1A): returned to levels similar to those of the control group; pdx-1 gene expression levels in pancreas ([2]; 21st day after birth, FIG. 2A): recovered to the levels similar to those in the control group; Islet of Langerhans size, insulin immunostaining of pancreases ([2]; 21st day after birth, FIGS. 1B-E): larger than that of the n0-STZ group but smaller than that of the control group; Pdx-1 gene expression in pancreas ([2]; 70th day after birth (adult rats), FIG. 4A): returned to the level close to that of the control group; Insulin mRNA expression in pancreas ([2]; 70th day after birth (adult stage), FIG. 3B): a level similar to that of the control group; Islet of Langerhans size, insulin immunohistochemical staining ([2]; 70th day after birth, FIGS. 3C-F): larger than that of the n0-STZ group but smaller than that of the control group; Double positive cells for phospho-histone H3 and insulin ([3]; STZ model): tendency for double positive cells for phospho-histone H3 and insulin to increase; Double positive cells for phospho-histone H3 and insulin ([3]; control group (no STZ)): tended to decrease; Increase of double positive cells for phospho-histone H3 and insulin ([3]; ghrelin group as compared to control rats): approximately 1.7 fold; Increase of double positive cells for phospho-histone H3 and insulin ([3]; n0-STZ/ghrelin group as compared to n0-STZ rats): ~15 fold

Question: Which “Insulin contents in pancreases relative to the STZ-vehicle group” value [1] does the source give for “GSS(n-octanoyl)FLSPEHQRVQQRKESKKPPAKLQPR (GSS(Octanoyl)FLSPEHQRVQQRKESKKPPAKLQPR; listed as Homo Sapiens) [human ghrelin]” here?
Answer: Its value is “about twice as high as those of the STZ-vehicle group”.

Question: What about the Body weights [1] of the same substance?
Answer: The Body weights was “comparable to those of the control group”.

Question: And the Pancreas weights [1]?
Answer: The Pancreas weights was “significantly greater than those of the STZ-vehicle group”.

Question: And the “Insulin Content (Gut Side)” value [1]?
Answer: The value was 63.0 ± 6.7 μg/pancreas.

Question: And the “Insulin Content (Spleen Side)” value [1]?
Answer: The value was 120.9 ± 14.1 μg/pancreas.

Question: What about the “ad lib blood sugar levels” value ([4]; 43rd day of high fatty acid diet and 300 μg/kg s.c. administration, FIG. 9B) of the same substance?
Answer: Its value is “tended to decrease as compared to the HFD-vehicle group”.

Question: And the “Plasma glucose concentrations after linoleic acid loading” value ([4]; 1 hour after 1 mL/kg linoleic acid i.p., FIG. 10B)?
Answer: Its value is “tended to be low as compared to the HFD-vehicle group”.

Question: And the “Plasma glucose concentrations before linoleic acid loading” value ([4]; after 50 days of high fatty acid diet and 300 μg/kg administration, fasted overnight, mean of 8 mice ± standard error)?
Answer: Its value is 141 ± 5 mg/dL.

Question: What about the “Plasma insulin concentrations after linoleic acid loading” value ([4]; after 50 days, fasted overnight, 1 hour after 1 mL/kg linoleic acid i.p., FIG. 10A) of the same substance?
Answer: Its value is “higher than those of the HFD-vehicle group”.
